# PMC7832312, “Enhancing the Physiochemical Properties of Puerarin via L-Proline Co-Crystallization: Synthesis, Characterization, and Dissolution Studies of Two Phases of Pharmaceutical Co-Crystals” (International Journal of Molecular Sciences, 2021)
# What was measured:
# [1] = Dissolution rate measurement (UV, 250 mL medium, 150 RPM, 2 h, 37 °C); type: physicochemical; conditions: 37 °C
# Experimental: The solubility and dissolution studies of pure PUE, I, and II were measured using a Thermo Scientific Evolution 300 UV spectrometer in deionized water at pH 7.0, gastrointestinal tract at pH 1.2, and phosphate buffer at pH 6.8 solution at 37 °C. The concentration was calculated utilizing a standard curve, which was made by measuring the absorbance of different concentrations at their λmax. A superfluity sum of the sample was added to 10 mL of H2O medium, pH 1.2 and pH 6.8 phosphate, respectively.
# The oversaturated solution was stirred at 500 RPM by magnetic stirring at 37 °C for 24 h and the suspension was filtered through Whatman’s […] syringe channel, diluted sufficiently and the absorbance was measured at their λmax. For the dissolution rate, the sample was specifically poured into 250 mL pH 7.0 water, pH 1.2 gastrointestinal tract, and pH 6.8 phosphates medium and then stirred at 150 RPM for 2h at 37 °C. Each solution was measured by the absorbance at λmax. At customary interims, the solution was replenished with 3 mL of the respective blank solution to maintain an overall steady volume.
# CT-26 cancer cell lines = assay: Cytotoxicity evaluation by MTT assay, CT-26; type: cell-based, murine; conditions: CT-26, culturing 24 h
# Experimental: (§1) CT-26 and HEK-293 cell line was purchased from American Type Culture Collection (Manassas, VA, USA). The cell lines were cultured in RPMI 1640 (for CT-26) or DMEM (for HEK-293) containing 10% fetal bovine serum (FBS, Zhejiang Tianhang Biotechnology Co. Ltd., Hangzhou, China) and 1% penicillin/streptomycin (Zhejiang Tianhang Biotechnology Co. Ltd., Hangzhou, China). Cells grew as a monolayer and were detached upon confluence using trypsin (0.5% w/v in PBS, Zhejiang Tianhang Biotechnology Co. Ltd., Hangzhou, China). The cells were harvested from the cell culture medium by incubating in trypsin solution for 3 min. The cells were centrifuged, and the supernatant discarded. A 3 mL portion of serum-supplemented cell culture medium was added to neutralize any residual trypsin. The cells were re-suspended in serum-supplemented RPMI 1640 (for CT-26) or DMEM (for HEK-293) at a concentration of 5 × 10^4 cells per 1 mL. Cells were cultured at 37 °C and 5% CO2 for MTT studies.
# (§2) The CT-26 or HEK-293 cells were seeded at a density of 1 × 10^4 cells per well in 100 µL of complete RPMI 1640 (CT-26) or DMEM (for HEK-293), and cultured for 16 h for attachment. The culture medium was then replaced by a serum-free medium containing various concentrations of pristine PUE, I, and II. […] After incubating the cells at 37 °C for 4 h, the MTT solution was removed and DMSO (100 μL) added to dissolve the formazan crystals formed, and the microplates were agitated for 5 min at a medium rate before the spectrophotometric measurement at a wavelength of 570 nm on a microplate reader. […] The relative cell viability (%) related to control cells was calculated by the formula below: V%=[A]experimental−[A]blank/[A]control−[A]blank×100% where V% is the percentage of cell viability, [A]experimental is the absorbance of the wells culturing the treated cells, [A]blank is the absorbance of the blank, and [A]control is the absorbance of the wells culturing untreated cells.
# HEK-293 cell lines = assay: Cytotoxicity evaluation by MTT assay, HEK-293; type: cell-based, human; conditions: HEK-293, culturing 24 h
# Experimental: as §1, §2
compound,measurement,setting,value
"O=C(O)[C@@H]1CCCN1.O=c1c(-c2ccc(O)cc2)coc2c([C@@H]3O[C@H](CO)[C@@H](O)[C@H](O)[C@H]3O)c(O)ccc12 [I, [PUE][PRO]]",Time-dependent dissolution rate,"[1]; Water, 5 min",0.220 mg/mL
same,Time-dependent dissolution rate,"[1]; Water, 10 min",0.343 mg/mL
same,Time-dependent dissolution rate,"[1]; Water, 15 min",0.452 mg/mL
same,Time-dependent dissolution rate,"[1]; Water, 20 min",0.533 mg/mL
same,Time-dependent dissolution rate,"[1]; Water, 25 min",0.591 mg/mL
same,Time-dependent dissolution rate,"[1]; Water, 30 min",0.674 mg/mL
same,Time-dependent dissolution rate,"[1]; Water, 40 min",0.767 mg/mL
same,Time-dependent dissolution rate,"[1]; Water, 50 min",0.945 mg/mL
same,Time-dependent dissolution rate,"[1]; Water, 60 min",1.045 mg/mL
same,Time-dependent dissolution rate,"[1]; Water, 80 min",1.373 mg/mL
same,Time-dependent dissolution rate,"[1]; Water, 100 min",1.503 mg/mL
same,Time-dependent dissolution rate,"[1]; Water, 120 min",1.645 mg/mL
same,Time-dependent dissolution rate,"[1]; pH 1.2, 5 min",0.013 mg/mL
same,Time-dependent dissolution rate,"[1]; pH 1.2, 10 min",0.035 mg/mL
same,Time-dependent dissolution rate,"[1]; pH 1.2, 15 min",0.122 mg/mL
same,Time-dependent dissolution rate,"[1]; pH 1.2, 20 min",0.192 mg/mL
same,Time-dependent dissolution rate,"[1]; pH 1.2, 25 min",0.249 mg/mL
same,Time-dependent dissolution rate,"[1]; pH 1.2, 30 min",0.356 mg/mL
same,Time-dependent dissolution rate,"[1]; pH 1.2, 40 min",0.588 mg/mL
same,Time-dependent dissolution rate,"[1]; pH 1.2, 50 min",0.711 mg/mL
same,Time-dependent dissolution rate,"[1]; pH 1.2, 60 min",0.958 mg/mL
same,Time-dependent dissolution rate,"[1]; pH 1.2, 80 min",1.159 mg/mL
same,Time-dependent dissolution rate,"[1]; pH 1.2, 100 min",1.383 mg/mL
same,Time-dependent dissolution rate,"[1]; pH 1.2, 120 min",1.603 mg/mL
same,Time-dependent dissolution rate,"[1]; pH 6.8, 5 min",0.207 mg/mL
same,Time-dependent dissolution rate,"[1]; pH 6.8, 10 min",0.291 mg/mL
same,Time-dependent dissolution rate,"[1]; pH 6.8, 15 min",0.384 mg/mL
same,Time-dependent dissolution rate,"[1]; pH 6.8, 20 min",0.493 mg/mL
same,Time-dependent dissolution rate,"[1]; pH 6.8, 25 min",0.570 mg/mL
same,Time-dependent dissolution rate,"[1]; pH 6.8, 30 min",0.664 mg/mL
same,Time-dependent dissolution rate,"[1]; pH 6.8, 40 min",0.786 mg/mL
same,Time-dependent dissolution rate,"[1]; pH 6.8, 50 min",0.850 mg/mL
same,Time-dependent dissolution rate,"[1]; pH 6.8, 60 min",0.918 mg/mL
same,Time-dependent dissolution rate,"[1]; pH 6.8, 80 min",1.183 mg/mL
same,Time-dependent dissolution rate,"[1]; pH 6.8, 100 min",1.265 mg/mL
same,Time-dependent dissolution rate,"[1]; pH 6.8, 120 min",1.303 mg/mL
same,cytotoxicity (MTT cell viability),CT-26 cancer cell lines,negligible cytotoxicity
same,cytotoxicity (MTT cell viability),HEK-293 cell lines,negligible cytotoxicity
